These results are taken from article PMC3640759 (Molecular and biochemical parasitology, 2013).

As a reminder, the IC50 is the concentration needed to halve the response being measured.

For series [1], the system named is P. falciparum 3D7 strain stage III–V gametocytes. Description: alamarBlue gametocyte viability assay, 1,536-well plate format. The series is classed as cell-based, Plasmodium falciparum. Background: Resazurin is reduced to fluorescent resorufin, in cell work by metabolically active cells.
Series [2] can be described thus: cytotoxicity assay against SH-SY5Y neuroblastoma cells. The following applies: human.
A short description of another series: in vitro. The conditions noted are these: human.
In series [3] the test system is P. falciparum gametocytes. The conditions noted are these: read-out: IC50 reported in 96-well plate format; cited from earlier work.
The subject of series [4] is SH-SY5Y neuroblastoma cell line. Description: cytotoxicity assay against SH-SY5Y neuroblastoma cells. The conditions noted are these: SH-SY5Y cells; lowest compound concentration 0.37 μM.
[5] abbreviates: Plasmodium falciparum, 3D7, 72 h, read-out: IC50 (gametocyte assay).

Where two headings read alike, the source gives them in different places.

On to `Cc1cc(NC2CCCCC2)nc(-n2nc(C)cc2C)n1` [CyPPA, Cyclohexyl-[2-(3,5-dimethyl-pyrazol-1-yl)-6-methyl-pyrimidin-4-yl]-amine], for which the IC50 in series [1] (setting [5]) was 1170 nM; in series [2] (SH-SY5Y neuroblastoma cells), 9.16 µM.

As for `CCN(CC)C(=S)SSC(=S)N(CC)CC` [Antabuse], the results for the IC50 (in series [1] (setting [5]); in the series “in vitro”) were 250 nM and 13.4 µM, respectively.

For the molecule `CC[C@H](C)[C@H](NC(=O)[C@H]([C@@H](C)CC)N(C)C(C)=O)C(=O)N[C@H](C(=O)N[C@@H](CC(C)C)C(=O)[C@@]1(C)CO1)[C@@H](C)O` [epoxomicin], the IC50 is 1.3 nM in series [1] (seeding density 10 k gametocytes/well, 1,536-well plate); 1.8 nM in series [1] (seeding density 20 k gametocytes/well, 1,536-well plate); 2.1 nM in series [1] (seeding density 27.5 k gametocytes/well, 1,536-well plate); 2.16 nM in series [3].

With `c1cnc2c(c1)ccc1cccnc12` [Phenanthroline, 1,10-phenanthroline], the IC50 in series [1] (setting [5]) turned out to be 2190 nM; in series [2] (SH-SY5Y neuroblastoma cells) it was 5.45 µM.

In “in vitro”, `Clc1ccccc1C(c1ccccc1)(c1ccccc1)n1ccnc1` [Clotrimazole] registered an IC50 of 9.48 µM.

For the molecule `CNc1ccc2oc(C[C@H]3O[C@@]4(CC[C@H]3C)O[C@H]([C@H](C)C(=O)c3ccc[nH]3)[C@H](C)C[C@H]4C)nc2c1C(=O)O` [Calcimycin], the results for the IC50 in series [1] (setting [5]) and in series [2] were 1960 nM and 1.37 µM, respectively.

Take `c1ccc2c(c1)[I+]c1ccccc1-2` [Dibenziodolium]: in series [4], the “cytotoxicity at lowest compound concentration tested” value was “completely cytotoxic”.
